Data: the supplement of paper PMC10307832

Key:
Assay in all cases: relative viability (nuclei count vs DMSO), 5 days (fraction); higher = more cells survive
[1] = compound: C1CSC2=C(C(=O)N1)SC3=C2C=C(C=C3)O [kb NB 142-70] + C[C@@H](Oc1cc(-c2cnn(C3CCNCC3)c2)cnc1N)c1c(Cl)ccc(F)c1Cl [Crizotinib] (partner 1 µM)
Outline: (§1)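 Relative viability is defined as nuclei in treated wells over nuclei in vehicle wells. Duplicate plates were run and medians reported. Lung cancer cell lines in 1536-well plates were dosed by pin tool one day after seeding, with one drug or with a fixed anchor-drug dose plus five library-drug doses (not always all listed) in √10 steps, and nuclei were counted after 5 days.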

[2] = compound: NCC(=O)Nc1ccc(-n2nc(C(F)(F)F)cc2-c2ccc3c(ccc4ccccc43)c2)cc1 + CC(=O)Nc1cccc(-n2c(=O)n(C3CC3)c(=O)c3c(Nc4ccc(I)cc4F)n(C)c(=O)c(C)c32)c1 [Trametinib] (partner 0.02 µM)
Outline: as §1

[3] = compound: NCC(=O)Nc1ccc(-n2nc(C(F)(F)F)cc2-c2ccc3c(ccc4ccccc43)c2)cc1 + Cc1cc(Nc2cc(N3CCN(C)CC3)nc(Sc3ccc(NC(=O)C4CC4)cc3)n2)n[nH]1 [Tozasertib] (partner 0.1 µM)
Outline: as §1

[4] = compound: NCC(=O)Nc1ccc(-n2nc(C(F)(F)F)cc2-c2ccc3c(ccc4ccccc43)c2)cc1 + Nc1ncn([C@H]2C[C@H](O)[C@@H](CO)O2)c(=O)n1 [Decitabine] (partner 2 µM)
Outline: as §1

Question: Which relative viability ([1]; first compound 0.1 µM) does the source give for UMC-11 here?
Answer: 0.698

Question: And the relative viability ([1]; first compound 1 µM)?
Answer: 0.601

Question: And the relative viability ([1]; first compound 3.162 µM)?
Answer: 0.277

Question: What about the relative viability ([2]; first compound 0.02 µM) of the same cell line?
Answer: 0.645

Question: And the relative viability ([2]; first compound 0.06325 µM)?
Answer: 0.85

Question: What about the relative viability ([2]; first compound 0.2 µM) of the same cell line?
Answer: 0.751

Question: And the relative viability ([2]; first compound 0.6325 µM)?
Answer: 0.773

Question: What about the relative viability ([2]; first compound 2 µM) of the same cell line?
Answer: 0.747

Question: What about the relative viability ([3]; first compound 0.02 µM) of the same cell line?
Answer: 0.191

Question: What about the relative viability ([3]; first compound 0.06325 µM) of the same cell line?
Answer: 0.21

Question: What about the relative viability ([3]; first compound 0.2 µM) of the same cell line?
Answer: 0.218

Question: And the relative viability ([3]; first compound 0.6325 µM)?
Answer: 0.19

Question: What about the relative viability ([3]; first compound 2 µM) of the same cell line?
Answer: 0.183

Question: What about the relative viability ([4]; first compound 0.02 µM) of the same cell line?
Answer: 0.63

Question: What about the relative viability ([4]; first compound 0.06325 µM) of the same cell line?
Answer: 0.593

Question: And the relative viability ([4]; first compound 0.2 µM)?
Answer: 0.557

Question: And the relative viability ([4]; first compound 0.6325 µM)?
Answer: 0.539

Question: What about the relative viability ([4]; first compound 2 µM) of the same cell line?
Answer: 0.701
